Data reported in patent publication US20190022198A1, “Individualized Immunomodulation Therapy for Neurodegenerative Disorders, CNS Injury and Age-Related Dementia” (Yeda Research and Development Co. Ltd., priority 2012, published 2019).

How the values were obtained:
[1] = system: 5XFAD mice; assay: Radial arm water maze (RAWM) in GA vaccinated 5XFAD mice; type: in vivo, mouse
Experimental: Mice were tested for two days on 6 radial arm water maze paradigm in a water pool, as described in Alamed et al., Nat Protoc. 2006, 1(4), 1671-1679. Briefly, mice received an injection of GA as indicated in the examples. On the first day, 15 trials were performed, in trials 1, 3, 5, 7, 9 and 11 the platform was visible, and in all other trials the platform was hidden. On the second day, 12 trials were performed, all of them with hidden platform. The time required to reach the platform and the number of errors (incorrect arm entries) in 1-min time period was recorded.
To test the effect of different regimens of administration of Cop 1, 5XFAD females were vaccinated subcutaneously (S.C.) with 100 μg Cop 1 dissolved in 200 μl PBS. Three different regimens were compared: 5XFAD+2GA were vaccinated twice, with the second injection given three days after the first; 5XFAD+5GA were vaccinated five times, twice in the first week and once a week for another three weeks, and 5XFAD+daily GA were vaccinated every day for 28 days (19B). One day after the last GA injection, mice were sacrificed and their spleens were analyzed by FACS and compared to WT and untreated 5XFAD littermates. […] Radial arm water maze (RAWM) was performed to 4 groups of 8 months old mice to test mental cognitive performance. […]

[2] = daily administration, subjects receiving daily injections; cited from earlier work
[3] = system: 5XFAD mice; assay: Cop 1 (GA) vaccination regimens in 5XFAD mice: FoxP3+ T cells in spleen (FACS) and CP (staining); type: in vivo, mouse
Experimental: For intracellular staining of IFN-γ or IL-17, the cells were incubated with PMA (10 ng/ml; Sigma-Aldrich) and ionomycin (250 ng/ml; Sigma-Aldrich) for 6 h, and Brefeldin-A ([…]; Sigma-Aldrich) was added for the last 4 h. Intracellular labeling of cytokines was done with BD Cytofix/Cytoperm Plus Fixation/Permeabilization kit (cat. no. 555028) according to the manufacturer's protocol. Intracellular staining of FoxP3 was performed using the FoxP3 staining kit (eBioscience) according to the manufacturer's protocol. The following fluorochrome-labeled mAbs were used according to the manufacturers' protocols: FITC-conjugated anti-TCRβ, FITC-conjugated anti-CD44, PE-conjugated anti-CD4, PE-conjugated anti-IL-17A, APC-conjugated anti-IFN-γ, FITC-conjugated anti-CD45.2, Alexa-700-conjugated anti-CD45.2, Percp-Cy5.5-conjugated anti-TCRβ (all from BioLegend), and APC-conjugated anti-FoxP3 (eBioscience). Flow cytometry analysis was performed on each sample using a BD Biosciences LSRII flow cytometer, and the acquired data were analyzed using FlowJo software (Tree star). In each experiment, relevant negative control groups and single stained samples for each tissue were used to determine the populations of interest and to exclude others.
For whole mount staining of the choroid plexus, isolated tissues were fixed with 2.5% paraformaldehyde (PFA) for several hours, and subsequently transferred to PBS containing 0.05% sodium azide. Prior to staining, the dissected tissues were washed and blocked (20% horse serum, 0.3% Triton X-100, and PBS) for 1 h at room temperature with shaking. Whole mount staining with primary (in PBS containing 2% horse serum and 0.3% Triton X-100) and secondary antibodies (in PBS), was performed for 1h at room temperature, with shaking. Each step was followed by three washes in PBS. […] For morphological quantification, average cross-sectional area of epithelial cells was measured following Nissl staining. Cell borders (20-25 cells per picture) were marked and the area was quantified using Image-Pro Plus software in a blinded fashion. […]

[4] = system: CP epithelial cells; assay: Primary culture of choroid plexus cells treated with cytokines, mRNA by real-time qPCR; type: cell-based, mouse; conditions: TNF-α 100 ng/ml
Experimental: Mice were perfused from the left ventricle of the heart with PBS, and their CPs were removed under a dissecting microscope (Stemi DV4; Zeiss) in PBS into tubes containing 0.25% trypsin, and kept on ice. The tubes were shaken for 20 minutes at 37° C. and the tissue was dissociated by pipetting. The cell suspension was washed in culture medium for epithelial cells (DMEM/HAM's F12 (Invitrogen Corp)) supplemented with 10% FCS (Sigma-Aldrich), 1 mM 1-glutamine, 1 mM sodium pyruvate, 100 U/ml penicillin, […] streptomycin, 5 μg/ml Insulin, 20 μM Ara-C, 5 ng/ml sodium selenite, 10 ng/ml EGF, and cultured (˜250,000 cells/well) at 37° C., 5% CO2 in 24-well plates (Corning Incorporated) coated with poly-L-lysine (PLL; Sigma-Aldrich). After 24 hours, the medium was changed, and the cells were either left untreated, or treated with the indicated cytokines (all purchased from PeproTech): IFN-γ, IL-4, IL-10, IL-17A, GM-CSF, IL-6, IL-1β or TNF-α or their combinations for 24 h. Cell viability was quantified by Trypan blue staining after detachment of the cells with 0.25% trypsin for 10 minutes at 37° C. Neutralizing antibodies to TNF-R1 or TNF-R2 ([…], BioLegend) were added 1 h prior to the addition of TNF-α (100 ng/ml). RNA was isolated using the ZR RNA microprep kit (Zymo Research) according to the manufacturer's protocol.
Total RNA of the hippocampus was extracted with TRI reagent (MRC, Cincinnati, Ohio) and was purified from the lysates and spinal cord using the RNeasy kit (Qiagen, Hilden, Germany). Total RNA of the choroid plexus was extracted using the RNA MicroPrep kit (Zymo Research). mRNA (1 μg) was converted to cDNA using High Capacity cDNA Reverse Transcription Kit (Applied Biosystems). The expression of specific mRNAs was assayed using fluorescence based real-time quantitative PCR (qPCR). qPCR reactions were performed using Power SYBR Green PCR Master Mix (Applied Biosystems). Quantification reactions were performed in triplicates for each sample using the standard curve method. Glyceraldehyde 3-phosphate dehydrogenase (GAPDH), Peptidylprolyl isomerase A (PPIA), and hypoxanthine guanine phosphoribosyltransferase (HPRT) were chosen as reference genes according to their stability in the target tissue. The amplification cycles were 95° C. for 5 sec, 60° C. for 20 sec, and 72° C. for 15 sec. At the end of the assay, a melting curve was constructed to evaluate the specificity of the reaction. For some genes, the cDNA was pre-amplified in 14 PCR cycles with non-random PCR primers, thus increasing the sensitivity of the subsequent real-time PCR analysis (PreAmp Master Mix Kit, Applied Biosystems). For these genes, expression was determined using TaqMan Real-Time PCR, according to manufacturer's instructions (Applied Biosystems). All quantitative real-time PCR reactions were performed and analyzed using the 7500 Real-Time PCR System (Applied Biosystems). The following TaqMan probes were used: Mm02342430_g1 (ppia), Mm00446968_m1 (hprt), Mm00445260_m1 (il-4), Mm01168134_m1 (ifn-γ), Mm00441238_m1 (ccl11), Mm00475988_m1 (arg-1). In addition, the following primers were used: […]

[5] = system: CP cells; assay: Transepithelial migration assay of CD115+ monocytes across CP cells towards CCL2; type: cell-based, mouse; conditions: TNF-α in combination with IFN-γ (data not shown)
Experimental: For transepithelial migration assay, CP cells were isolated as above and plated on 5-μm pore size, 6.5 mm diameter polycarbonate filters in 24-well Transwell chambers (Costar, Corning) and grown for 7 days. The medium of the upper chamber was then replaced with 100 μl of freshly isolated CD115^+ monocytes (1.5×10^6 cells/ml in RPMI 1640 supplemented with 0.5% BSA) and the inserts were transferred to new wells containing RPMI 1640 supplemented with 0.5% BSA and 100 ng/ml CCL2 (PeproTech). The Transwells were then incubated at 37° C., 5% CO2. After 24 h the migrating cells at the lower chamber were removed using cell scraper and CD11b^+ cells were quantified by flow cytometry.
CD115^+ monocytes were isolated as previously reported (Shechter et al., 2009). Briefly, BM cells were harvested from the femur and tibiae of naïve mice, and enriched for mononuclear cells on a Ficoll density gradient. The CD115^+ BM monocyte population was isolated by MACS enrichment using biotinylated anti-CD115 antibodies and streptavidin-coupled magnetic beads (Miltenyi Biotec) according to the manufacturer's protocols. Monocyte purity was checked by flow cytometry based on CD11b reactivity and was 90%.

[6] = system: cultured CP cells; assay: Immunocytochemistry of cultured CP cells treated with cytokines; type: cell-based, mouse; conditions: cultured cells following TNF-α treatment (data not shown)
Experimental: For whole mount staining of the choroid plexus, isolated tissues were fixed with 2.5% paraformaldehyde (PFA) for several hours, and subsequently transferred to PBS containing 0.05% sodium azide. Prior to staining, the dissected tissues were washed and blocked (20% horse serum, 0.3% Triton X-100, and PBS) for 1 h at room temperature with shaking. Whole mount staining with primary (in PBS containing 2% horse serum and 0.3% Triton X-100) and secondary antibodies (in PBS), was performed for 1h at room temperature, with shaking. Each step was followed by three washes in PBS. The tissues were mounted onto slides, using Immu-mount (9990402, from Thermo), and sealed with cover-slips. For staining of sectioned brains, two different tissue preparation protocols (paraffin embedded and microtomed frozen sections) were applied, as previously described (Ziv Y et al (2006b)). For immunocytochemistry, CP cells were isolated as described above and were grown on PLL coated cover slips for 7 days, replacing the medium every 3 days. Cytokines were added for the last 3 days of culture. Following 7 days of culture, the wells were washed with PBS and the cells were fixed either with 2.5% paraformaldehyde for 30 min or methanol-acetone (1:1) for 10 min at −20° C., following by 2 washing steps with PBS. For CCL11 staining, cells were treated with Brefeldin-A 2 hours prior to fixation in order to arrest protein secretion. The cover slips of the cultured CP cells were incubated with the indicated antibodies and mounted with Glycerol Vinyl Alcohol (GVA) mounting solution (Invitrogen). The following primary antibodies were used: rat anti-CD3 (Abcam); rat anti-ICAM-1 (1:100; Abcam), chicken anti-vimentin (1:500, Millipore), rabbit anti-Iba1 (1:300; Wako), goat anti-IL-10 (1:20; R&D), mouse anti-MHC-II (Abcam); mouse anti-Arginase-1 (BD Biosciences); mouse anti-Cytokeratin (Covance); rat anti-CCL11 (R&D Systems); rabbit anti-ZO-1 (Invitrogen); and rabbit anti-Claudin-1 (Invitrogen). Secondary antibodies included: Cy2/Cy3-conjugated donkey anti-rat, mouse or rabbit antibody and Cy3 conjugated donkey anti-mouse, goat, rat, chicken or rabbit (1:200; all from Jackson Immuno Research). The slides were exposed to Hoechst stain (1:2000; Invitrogen) for 1 min. Two negative controls were routinely used in immunostaining procedures, staining with isotype control antibody followed by secondary antibody, and staining with secondary antibody alone. For morphological quantification, average cross-sectional area of epithelial cells was measured following Nissl staining. Cell borders (20-25 cells per picture) were marked and the area was quantified using Image-Pro Plus software in a blinded fashion.

Substance | RAWM performance (mental cognitive performance) ([1]; daily administration of GA for 28 days) | RAWM performance (mental cognitive performance) ([1]; weekly GA: twice in the first week and once a week for another 3 weeks, compared to unvaccinated 5XFAD) | level of Treg cells in the blood [2] | fold change of FoxP3+ T cells in spleen ([3]; 2GA: vaccinated twice, second injection three days after the first, 100 μg S.C., compared to untreated 5XFAD) | incidence of FoxP3+CD3+ T cells in the CP ([3]; 5XFAD+5GA, compared to untreated 5XFAD littermates) | FoxP3+ T cells in the spleens ([3]; daily GA: every day for 28 days, 100 μg S.C.) | expression of IFN-γ-receptor (IFN-γR) mRNA ([4]; CP epithelial cells, 24 h, IL-1β 100 ng/ml, IL-6 10 ng/ml) | MADCAM-1 expression ([4]; cultured CP cells, 24 hours, IFN-γ independent) | monocyte trafficking through the CP towards CCL2 [5] | IFN-γR immunostaining [6]
Glatiramer Acetate [GA] | performed as badly as the unvaccinated 5XFAD mice | significantly improved | raises the level of Treg cells in the blood | significant decrease in the fold change of FoxP3^+ T cells | decreased | promoted the enrichment of FoxP3^+ T cells | – | – | – | –
TNF-α | – | – | – | – | – | – | elevated the expression of IFN-γ-receptor | upregulated | stimulated the CP to mediate monocyte trafficking towards CCL2 | elevation of IFN-γR
